Reference: patent EP0812825B1, “PROPENONE DERIVATIVES” (KYOWA HAKKO KOGYO CO., LTD., priority 1995, dated 1997)

What was measured:
HeLa S3 cells = assay: HeLa S3 cell growth inhibition test (neutral red staining); type: cell-based; details: Homo sapiens; HeLa S3, 72 hours culture with compound
Description: Test Example 1: HeLa S3 Cell Growth Inhibition Test
Each 0.1 ml of HeLa S3 cells which had been prepared to 3 x 10^4 cells/ml using a medium consisting of MEM medium, 10% fetal bovine serum, and 2 mM glutamine was distributed in each well of 96 well-microtiter plate.
HeLa S3 was cultured at 37°C for one night in a CO2 incubator, each 0.05 ml of test compounds which had been appropriately diluted with the culture solution was added thereto, and the mixture was cultured at 37°C for 72 hours in a CO2 incubator. Supernatant was removed, each 0.1 ml of the culture solution containing 0.02% neutral red was added to the residue, the mixture was incubated at 37°C for one hour in a CO2 incubator, and the cells were stained. Supernatant was removed and the residue was washed once with physiological saline. Then, the pigment was extracted with 0.001 N hydrochloric acid/30% ethanol and the absorbance at 550 nm was measured by a microplatereader. A concentration of the test compound (IC50) at which the growth of cell is inhibited by 50% was calculated by comparing the absorbance of non-treated cells and that of cells treated with a predetermined concentration of the test compound.

[1] = tested on: Delayed Type Hypersensitivity Footpad Reaction; assay: Effect against delayed type hypersensitivity footpad reaction (TNBS-immunized mice); type: in vivo, BALB/c mice
Description: Male BALB/c mice (8-weeks-old, Charles River Japan Inc.) were immunized by intradermally injection in the dorsal flank of 100 µl of 10mM 2,4,6-trinitrobenzenesulfonic acid (TNBS) in saline. Five mice were used in each group, that is, control group [0.5% methylcellulose containing 10% dimethyl sulfoxide (DMSO)-administered group], Cyclosporine A (Sandoz)-administered group, and test compound-administered group wherein a determined concentration of test compound suspended in 0.5% methylcellulose containing 10% DMSO was administered. Each of Cyclosporine A and test compound was intraperitoneally administered 30 minutes before and once a day for 4 days after immunization. 50 µl of 10mM TNBS was intradermally injected as a challenging antigen 5 days after immunization when antigen-sensitization was developed. Thickness of both footpads of each animal in each dose of test compound-administered group was measured with a dial thickness gauge 18 hours after antigen challenge, and the value of the difference in thickness of left and right footpad (T) was determined. On the other hand, thickness of both footpads in control group was measured, and the value of the difference in thickness of left and right footpad (C) was determined. Suppression rate in footpad reaction was calculated as [(C - T)/C] x 100.

T-Cell Proliferation = assay: T-cell proliferation inhibitory test using mouse mixed lymphocyte reaction (MLR), [3H]-thymidine incorporation; type: cell-based; details: 72 hours
Description: Test Example 5: T-Cell Proliferation Inhibitory Test Using Mouse Mixed Lymphocyte Reaction (MLR)
Spleen was sterilly removed from C3H/He mouse and single cell suspension was prepared. This suspension was irradiated with 2000R X-ray and adjusted into 8 x 10^6 cells/ml. 50 µl of lymph-node cells of BALB/c mouse (containing 2 x 10^5 cells), 50 µl of X-ray irradiated spleen cell suspension of C3H/He mouse (containing 4 x 10^5 cells), and 50 µl of determined concentration of test compound solution were added in each well of 96 well microtiter plate and cultured at 37°C for 72 hours in the CO2 incubator. Eight hours before the end of culture, [^3H]-Thymidine (1.85 KBq) was added. At the end of culture, cells were trapped. on the filter paper by cell harvester and dried. Toluene type scintillator was added and radioactivity of [^3H]-Thymidine incorporated into cells was measured by liquid scintillation counter.
Suppression rate of T-cell proliferation was calculated according to the following equation. Suppression rate (%) =((Radioactivity in control group) - (Radioactivity in test group))/((Radioactivity in control group) - (Radioactivity in X-ray irradiated C3H/He+Radioactivity in Balb/c))× 100 [formula]

[2] = tested on: anti-Trinitrophenol (TNP) Antibody Production; assay: Effect against anti-trinitrophenol (TNP) antibody production (serum ELISA); type: in vivo, BALB/c mice
Description: Mice which were used for the effect against delayed type hypersensitivity footpad reaction were bled, the sera were separated by centrifugation at 3000rpm at 4°C for 10 minutes, and then anti-TNP antibody titer was measured. For measuring anti-TNP antibody, enzyme-linked immunosorbent assay (ELISA) was used. […] Peroxidase labeled anti-mouse IgG+IgA+IgM (American Qualex International, Inc.) was added and bound to anti-TNP antibody in culture supernatant which was bound to plate. Orthophenylenediamine (Wako Pure Chemical Industries, Ltd) solution containing hydrogen peroxide (Wako Pure Chemical Industries, Ltd) was added and enzyme reaction was started. After sufficient coloring, coloring reaction was stopped by addition of 10% […] (Wako Pure Chemical Industries, Ltd) and absorbance at 490nm was measured by immunoreader (Intermed Japan, NJ-2000).
Suppression rate of anti-TNP antibody production by test compound was calculated according to the following equation.

[3] = dose 3.0 mg/kg x 5, intraperitoneally
[4] = dose 10 mg/kg x 5, intraperitoneally

Compound | IC50 (HeLa S3 cells) [nM] | further results
COc1cc(C(=O)/C(=C/c2c[nH]c3ccccc23)OC(C)C)cc(OC)c1OC [Compound 4, (Z)-2-Isopropyloxy-3-(indol-3-yl)-1-(3,4,5-trimethoxyphenyl)-2-propen-1-one] | 3.7 | –
COc1cc(C(=O)/C(=C/c2c[nH]c3ccccc23)CCC(O)CO)cc(OC)c1OC (stereo not drawn) [Compound 19, (E)-2-(3,4-Dihydroxybutyl)-3-(indol-3-yl)-1-(3,4,5-trimethoxyphenyl)-2-propen-1-one] | 2.1 | –
COc1cc(C(=O)/C(=C/c2c[nH]c3cccc(C)c23)SCC(O)CO)cc(OC)c1OC (stereo not drawn) [Compound 23, (Z)-2-(2,3-Dihydroxypropylthio)-3-(4-methylindol-3-yl)-1-(3,4,5-trimethoxyphenyl)-2-propen-1-one] | 19 | –
CCCO/C(=C\c1c[nH]c2ccccc12)C(=O)c1cc(OC)c(OC)c(OC)c1 [Compound 3, (Z)-3-(Indol-3-yl)-2-propyloxy-1-(3,4,5-trimethoxyphenyl)-2-propen-1-one] | 13 | –
COc1cc(C(=O)/C(=C/c2c[nH]c3cc(C)ccc23)CCC(O)CO)cc(OC)c1OC (stereo not drawn) [Compound 20, (E)-2-(3,4-Dihydroxybutyl)-3-(6-methylindol-3-yl)-1-(3,4,5-trimethoxyphenyl)-2-propen-1-one] | 5.6 | –
COc1cc(C(=O)/C(=C/c2c[nH]c3cc(C)ccc23)SCCO)cc(OC)c1OC [Compound 13, (Z)-2-(2-Hydroxyethylthio)-3-(6-methylindol-3-yl)-1-(3,4,5-trimethoxyphenyl)-2-propen-1-one] | 2.5 | –
COc1cc(C(=O)/C(=C/c2c[nH]c3cccc(Cl)c23)SCC(O)CO)cc(OC)c1OC (stereo not drawn) [Compound 24, (Z)-3-(4-Chloroindol-3-yl)-2-(2,3-dihydroxypropylthio)-1-(3,4,5-trimethoxyphenyl)-2-propen-1-one] | 15 | –
CCO/C(=C\c1c[nH]c2ccccc12)C(=O)c1cc(OC)c(OC)c(OC)c1 [Compound 2, (Z)-2-Ethoxy-3-(indol-3-yl)-1-(3,4,5-trimethoxyphenyl)-2-propen-1-one] | 2.5 | –
COc1cc(C(=O)/C(=C/c2c[nH]c3cc(Cl)ccc23)SCC(O)CO)cc(OC)c1OC (stereo not drawn) [Compound 31, (Z)-3-(6-Chloroindol-3-yl)-2-(2,3-dihydroxypropylthio)-1-(3,4,5-trimethoxyphenyl)-2-propen-1-one] | 7.2 | –
COc1cc(C(=O)C(=Cc2c[nH]c3cc(C)ccc23)SC[C@@H](O)[C@H](O)CO)cc(OC)c1OC [Compound 36, 3-(6-Methylindol-3-yl)-2-[(2S),(3R)-2,3,4-trihydroxybutylthio]-1-(3,4,5-trimethoxyphenyl)-2-propen-1-one] | 5.3 | –
CCc1ccc2c(/C=C(\SCC(O)CO)C(=O)c3cc(OC)c(OC)c(OC)c3)c[nH]c2c1 (stereo not drawn) [Compound 29, (Z)-2-(2,3-Dihydroxypropylthio)-3-(6-ethylindol-3-yl)-1-(3,4,5-trimethoxyphenyl)-2-propen-1-one] | 18 | –
COc1cc(C(=O)/C(=C/c2c[nH]c3cc(F)ccc23)SCC(O)CO)cc(OC)c1OC (stereo not drawn) [Compound 32, (Z)-2-(2,3-Dihydroxypropylthio)-3-(6-fluoroindol-3-yl)-1-(3,4,5-trimethoxyphenyl)-2-propen-1-one] | 5.9 | –
COc1cc(C(=O)/C(=C/c2c[nH]c3ccccc23)Oc2ccc(Br)cc2)cc(OC)c1OC [Compound 8, (Z)-2-(4-Bromophenoxy)-3-(indol-3-yl)-1-(3,4,5-trimethoxyphenyl)-2-propen-1-one] | 62 | –
COc1cc(C(=O)/C(=C/c2c[nH]c3ccc(F)cc23)SCC(O)CO)cc(OC)c1OC (stereo not drawn) [Compound 27, (Z)-2-(2,3-Dihydroxypropylthio)-3-(5-fluoroindol-3-yl)-1-(3,4,5-trimethoxyphenyl)-2-propen-1-one] | 6.3 | –
COc1cc(C(=O)/C(=C/c2c[nH]c3ccccc23)SC)cc(OC)c1OC [Compound 9, (Z)-3-(Indol-3-yl)-2-methylthio-1-(3,4,5-trimethoxyphenyl)-2-propen-1-one] | 2.2 | –
COc1cc(C(=O)/C(=C/c2c[nH]c3cc(C)ccc23)SCC(O)CO)cc(OC)c1OC (stereo not drawn) [Compound 28, (Z)-2-(2,3-Dihydroxypropylthio)-3-(6-methylindol-3-yl)-1-(3,4,5-trimethoxyphenyl)-2-propen-1-one] | 6.3 | –
COc1cc(C(=O)/C(=C/c2c[nH]c3ccccc23)Oc2ccccc2C)cc(OC)c1OC [Compound 7, (Z)-3-(Indol-3-yl)-2-(2-methylphenoxy)-1-(3,4,5-trimethoxyphenyl)-2-propen-1-one] | 68 | –
COc1cc(C(=O)C(=Cc2c[nH]c3cc(C)ccc23)SC[C@H](O)[C@@H](O)CO)cc(OC)c1OC [Compound 37, 3-(6-Methylindol-3-yl)-2-[(2R),(3S)-2,3,4-trihydroxybutylthio)-1-(3,4,5-trimethoxyphenyl)-2-propen-1-one] | 7.1 | –
COc1cc(C(=O)C(=Cc2c[nH]c3ccccc23)SCC(O)C(O)CO)cc(OC)c1OC [Compound 35, 3-(Indol-3-yl)-2-[(2S),(3R)-2,3,4-trihydroxybutylthio]-1-(3,4,5-trimethoxyphenyl)-2-propen-1-one] | 4.4 | –
COc1cc(C(=O)/C(=C/c2cn(C)c3ccccc23)SCC(O)CO)cc(OC)c1OC (stereo not drawn) [Compound 22, (Z)-2-(2,3-Dihydroxypropylthio)-3-(1-methylindol-3-yl)-1-(3,4,5-trimethoxyphenyl)-2-propen-1-one] | 20 | –
COc1cc(C(=O)/C(=C/c2c[nH]c3ccccc23)SCC(O)CO)cc(OC)c1OC (stereo not drawn) [Compound 21, (Z)-2-(2,3-Dihydroxypropylthio)-3-(indol-3-yl)-1-(3,4,5-trimethoxyphenyl)-2-propen-1-one] | 4.8 | Suppression rate(%) [1, 3]: 8.5 (3.0) %; Suppression rate(%) [1, 4]: 69 (10) %; inhibition at 0.1 µM (T-Cell Proliferation; concentration 10^-7 M, read-out: Suppression rate(%)): 107%; inhibition at 0.01 µM (T-Cell Proliferation; concentration 10^-8 M, read-out: Suppression rate(%)): 106%; inhibition at 0.001 µM (T-Cell Proliferation; concentration 10^-9 M, read-out: Suppression rate(%) (converted)): 7.8%; Suppression rate(%) [2, 3]: 15 (3.0) %; Suppression rate(%) [2, 4]: 57 (10) %
CO/C(=C\c1c[nH]c2ccccc12)C(=O)c1cc(OC)c(OC)c(OC)c1 [Compound 1, (Z)-3-(Indol-3-yl)-2-methoxy-1-(3,4,5-trimethoxyphenyl)-2-propen-1-one] | 2.4 | –
COC(=O)CS/C(=C\c1c[nH]c2ccccc12)C(=O)c1cc(OC)c(OC)c(OC)c1 [Compound 16, (Z)-3-(Indol-3-yl)-2-methoxycarbonylmethylthio-1-(3,4,5-trimethoxyphenyl)-2-propen-1-one] | 4.7 | –
